# Assay: stability of compositions (lasting white color, no yellowing over time)
# Type: physicochemical
# Details: particularly in a stick product form
# Excerpt: This is evidenced by a lasting white color of the present compositions, without the manifestation of yellowing over time, particularly in a stick product form. The present compositions can also be in other cosmetic product forms, such as, for example, an emulsion, a gel, a lip balm, a lip gloss, a lipstick, a lotion, a mask, an ointment, a patch, a pomade, a solution, a spray, or a towelette.
compound,measurement,value
CC(C=CC1=C(C)CCCC1(C)C)=CC=CC(C)=CCO[Si](C)(C)C [retinoxytrimethylsilane],stability of compositions compared to prior art,more stable compositions than those of the prior art
